# Assay results from patent US10323037B2, “Aminopyridazinone compounds as protein kinase inhibitors” (Jiangsu Hengrui Medicine Co., Ltd., priority 2014, dated 2019).
# System: TMD-8 cells
# Test: Cell proliferation assay (CellTiter-Glo), TMD-8
# Assay type: cell-based
# Settings: Homo sapiens, TMD8, 120 h; 5-day treatment; read-out: TMD8 cells growth IC50
# Description: Cell proliferation assay: TMD-8 and SU-DHL-1 cells were maintained at 37° C. in a humidified atmosphere with 5% CO2 in the recommended medium and serum concentrations. For cell proliferation assay, cells were seeded in 96-well pates at a density of 5,000 to 10,000 cells per well and cultured overnight at 37° C. in recommended medium supplemented with 5-10% FBS. On the next day, the test articles at various concentrations or vehicle control (0.5% DMSO) were added into cell culture. After 5-day treatment, the growth of cells was assayed by the CellTiter-Glo® Luminestceaent Cell Viability Assay (Promega). IC50 values were calculated using GraphPad Prism by plotting the logarithm of the concentration versus percent inhibition of cell growth as compared with the vehicle control.
row,SMILES,IC50 [nM]
1,"CCC(=O)N1CCC[C@@H](n2cc(-c3ccc(Oc4c(F)cccc4F)cc3)c3c(N)n[nH]c(=O)c32)C1 [Example 115, (R)-4-amino-3-(4-(2,6-difluorophenoxy)phenyl)-1-(1-propionylpiperidin-3-yl)-1H-pyrrolo[2,3-d]pyridazin-7(6H)-one]",10 to 1000
2,"C=CC(=O)N1CCC[C@@H](n2cc(-c3ccc(Oc4ccc(Cl)c(Cl)c4)c(OC)c3)c3c(N)n[nH]c(=O)c32)C1 [Example 72, (R)-1-(1-acryloylpiperidin-3-yl)-4-amino-3-(4-(3,4-dichlorophenoxy)-3-methoxyphenyl)-1H-pyrrolo[2,3-d]pyridazin-7(6H)-one]",10 to 1000
3,"C=CC(=O)Nc1cccc(-n2cc(-c3ccc(OC)c(Cl)c3)c3c(N)n[nH]c(=O)c32)c1 [Example 89, N-(3-(4-amino-3-(3-chloro-4-methoxyphenyl)-7-oxo-6,7-dihydro-1H-pyrrolo[2,3-d]pyridazin-1-yl)phenyl)acrylamide]",10 to 1000
4,"Nc1n[nH]c(=O)c2c1c(-c1ccc(Oc3ccccc3)cc1)cn2[C@@H]1CCCN(C(=O)/C=C/CN2CCCC2)C1 [Example 34, 4-amino-3-(4-phenoxyphenyl)-1-[(3R)-1-[(E)-4-pyrrolidin-1-ylbut-2-enoyl]-3-piperidyl]-6H-pyrrolo[2,3-d]pyridazin-7-one]",≤ 10
5,"C=CC(=O)Nc1cccc(-n2cc(-c3ccc(Oc4ccccc4F)cc3)c3c(N)n[nH]c(=O)c32)c1 [Example 91, N-(3-(4-amino-3-(4-(2-fluorophenoxy)phenyl)-7-oxo-6,7-dihydro-1H-pyrrolo[2,3-d]pyridazin-1-yl)phenyl)acrylamide]",≤ 10
6,"CN(C)C/C=C/C(=O)N1CCC[C@@H](n2cc(-c3ccc(Oc4c(F)cccc4Cl)cc3)c3c(N)n[nH]c(=O)c32)C1 [Example 79, 4-amino-3-[4-(2-chloro-6-fluoro-phenoxy)phenyl]-1-[(3R)-1-[(E)-4-(dimethylamino)but-2-enoyl]-3-piperidyl]-6H-pyrrolo[2,3-d]pyridazin-7-one]",≤ 10
7,"CN(C)C/C=C/C(=O)N1CCCC(n2cc(-c3ccc(Oc4ccccc4)cc3)c3c(N)n[nH]c(=O)c32)C1 (stereo not shown) [Example 38, 4-amino-1-[1-[(E)-4-(dimethylamino)but-2-enoyl]-3-piperidyl]-3-(4-phenoxyphenyl)-6H-pyrrolo[2,3-d]pyridazin-7-one]",≤ 10
8,"COc1ccc(-c2cn(C3CCCN(C(=O)/C=C/CN(C)C)C3)c3c(=O)[nH]nc(N)c23)cc1 (stereo not shown) [Example 52, 4-amino-1-[1-[(E)-4-(dimethylamino)but-2-enoyl]-3-piperidyl]-3-(4-methoxyphenyl)-6H-pyrrolo[2,3-d]pyridazin-7-one]",1000 to 100000
9,"C=CC(=O)N1CCC[C@@H](n2cc(-c3ccc(Oc4ccccc4F)cc3)c3c(N)n[nH]c(=O)c32)C1 [Example 56, (R)-1-(1-acryloylpiperidin-3-yl)-4-amino-3-(4-(2-fluorophenoxy)phenyl)-1H-pyrrolo[2,3-d]pyridazin-7(6H)-one]",≤ 10
10,"C=CC(=O)N1CCCC(n2cc(-c3ccc(Oc4cccc(Cl)c4)c(OC)c3)c3c(N)n[nH]c(=O)c32)C1 (stereo not shown) [Example 68, 1-(1-acryloylpiperidin-3-yl)-4-amino-3-(4-(3-chlorophenoxy)-3-methoxyphenyl)-1H-pyrrolo[2,3-d]pyridazin-7(6H)-one]",≤ 10
11,"CN(C)C/C=C/C(=O)N1CC[C@@H](n2cc(-c3ccc(Oc4ccccc4)cc3)c3c(N)n[nH]c(=O)c32)C1 [Example 39, 4-amino-1-[(3R)-1-[(E)-4-(dimethylamino)but-2-enoyl]pyrrolidin-3-yl]-3-(4-phenoxyphenyl)-6H-pyrrolo[2,3-d]pyridazin-7-one]",≤ 10
12,"CN(C)C/C=C/C(=O)N1CCCC(n2cc(-c3ccc(Oc4cccc(Cl)c4)cc3)c3c(N)n[nH]c(=O)c32)C1 (stereo not shown) [Example 67, 4-amino-3-[4-(3-chlorophenoxy)phenyl]-1-[1-[(E)-4-(dimethylamino)but-2-enoyl]-3-piperidyl]-6H-pyrrolo[2,3-d]pyridazin-7-one]",10 to 1000
13,"CN(C)C/C=C/C(=O)N1CCC[C@@H](n2cc(-c3ccc(Oc4c(F)cccc4F)cc3)c3c(N)n[nH]c(=O)c32)C1 [Example 59, 4-amino-3-[4-(2,6-difluorophenoxy)phenyl]-1-[(3R)-1-[(E)-4-(dimethylamino)but-2-enoyl]-3-piperidyl]-6H-pyrrolo[2,3-d]pyridazin-7-one]",≤ 10
14,"CN(C)C/C=C/C(=O)N1CCCC(n2cc(-c3ccc(Oc4cccc(F)c4)cc3)c3c(N)n[nH]c(=O)c32)C1 (stereo not shown) [Example 63, 4-amino-1-[1-[(E)-4-(dimethylamino)but-2-enoyl]-3-piperidyl]-3-[4-(3-fluorophenoxy)phenyl]-6H-pyrrolo[2,3-d]pyridazin-7-one]",≤ 10
15,"CC#CC(=O)N1CC[C@@H](n2cc(-c3ccc(Oc4ccccc4F)cc3)c3c(N)n[nH]c(=O)c32)C1 [Example 95, (R)-4-amino-1-(1-(but-2-ynoyl)pyrrolidin-3-yl)-3-(4-(2-fluorophenoxy)phenyl)-1H-pyrrolo[2,3-d]pyridazin-7(6H)-one]",≤ 10
16,"CNC/C=C/C(=O)N1CCC[C@@H](n2cc(-c3ccc(Oc4ccccc4)cc3)c3c(N)n[nH]c(=O)c32)C1 [Example 18, 4-amino-1-[(3R)-1-[(E)-4-(methylamino)but-2-enoyl]-3-piperidyl]-3-(4-phenoxyphenyl)-6H-pyrrolo[2,3-d]pyridazin-7-one]",≤ 10
17,"C=CC(=O)N1CCC[C@@H](n2nc(-c3ccc(Oc4ccccc4F)cc3)c3c(N)n[nH]c(=O)c32)C1 [Example 109, (R)-1-(1-acryloylpiperidin-3-yl)-4-amino-3-(4-(2-fluorophenoxy)phenyl)-1H-pyrazolo[3,4-d]pyridazin-7(6H)-one]",≤ 10
18,"CC#CC(=O)N1CCC[C@@H](n2cc(-c3ccc(Oc4c(F)cccc4F)cc3)c3c(N)n[nH]c(=O)c32)C1 [Example 117, (R)-4-amino-1-(1-(but-2-ynoyl)piperidin-3-yl)-3-(4-(2,6-difluorophenoxy)phenyl)-1H-pyrrolo[2,3-d]pyridazin-7(6H)-one]",10 to 1000
19,"N#CN1CCC[C@@H](n2cc(-c3ccc(Oc4ccccc4F)cc3)c3c(N)n[nH]c(=O)c32)C1 [Example 87, (R)-3-(4-amino-3-(4-(2-fluorophenoxy)phenyl)-7-oxo-6,7-dihydro-1H-pyrrolo[2,3-d]pyridazin-1-yl)piperidine-1-carbonitrile]",≤ 10
20,"C=CC(=O)N1CCC(F)C(n2cc(-c3ccc(Oc4ccccc4)cc3)c3c(N)n[nH]c(=O)c32)C1 (stereo not shown) [Example 13, 1-(1-acryloyl-4-fluoropiperidin-3-yl)-4-amino-3-(4-phenoxyphenyl)-1H-pyrrolo[2,3-d]pyridazin-7(6H)-one]",≤ 10
21,"C=CC(=O)N1CCC[C@@H](n2nc(-c3ccc(Oc4ccccc4)cc3)c3c(N)n[nH]c(=O)c32)C1 [Example 110, (R)-1-(1-acryloylpiperidin-3-yl)-4-amino-3-(4-phenoxyphenyl)-1H-pyrazolo[3,4-d]pyridazin-7(6H)-one]",≤ 10
22,"CC#CC(=O)N1CC[C@@H](n2cc(-c3ccc(Oc4c(F)cccc4F)cc3)c3c(N)n[nH]c(=O)c32)C1 [Example 93, (R)-4-amino-1-(1-(but-2-ynoyl)pyrrolidin-3-yl)-3-(4-(2,6-difluorophenoxy)phenyl)-1H-pyrrolo[2,3-d]pyridazin-7(6H)-one]",≤ 10
